We go through 75 compounds from article PMC6792352, “Limited Chemical Structural Diversity Found to Modulate Thyroid Hormone Receptor in the Tox21 Chemical Library” (Environmental Health Perspectives, 2019).

Where a name gives a salt, the structure may show the parent alone.

The data set in a line: in vitro. The conditions noted are these: rat, gh3-tre-luc cells.

In the case of `Cc1nn(C)c(Oc2ccccc2)c1C=NOCc1ccc(C(=O)OC(C)(C)C)cc1` [Fenpyroximate (Z,E)], the midpoint of cytotoxicity (AC50 (uM) modified / 1000), the CC50 at 24 h, lay at 59.7 µM. The same measure, in the same setting: the same measure for `Nc1ccn([C@@H]2CS[C@H](CO)O2)c(=O)n1` [Lamivudine]: above 90 µM.

For the compound `CCNc1nc(Cl)nc(NC(C)(C)C#N)n1` [Cyanazine], the CC50 at 24 h (AC50 (uM) modified / 1000, Tox21_110001=Tox21_201619, viability, 1 nM T3 present, 24 h) is above 90 µM. `CCCCCCCCCCCC(=O)N(CC)CC` [N,N-Diethyldodecanamide] registered a CC50 at 24 h (AC50 (uM) modified / 1000) above 90 µM. Still for that read-out and setting: the same measure for `N#Cc1c[nH]cc1-c1cccc2c1OC(F)(F)O2` [Fludioxonil]: 35.9 µM; for `CC1(C)O[C@@H]2C[C@H]3[C@@H]4CCC5=CC(=O)C=C[C@]5(C)[C@H]4[C@@H](O)C[C@]3(C)[C@]2(C(=O)CO)O1` [Desonide]: above 50 µM; for `O=C(O)CC(=O)O` [Propanedioic acid]: above 90 µM. Same read-out and setting: the same measure for `CCCCCCCCn1sc(Cl)c(Cl)c1=O` [4,5-Dichloro-2-octyl-3(2H)-isothiazolone]: 12.7 µM.

In turn, `OC[C@H]1O[C@H](O[C@]2(CCl)O[C@H](CCl)[C@@H](O)[C@@H]2O)[C@H](O)[C@@H](O)[C@H]1Cl` [Sucralose] yielded a CC50 at 24 h (AC50 (uM) modified / 1000) above 90 µM. The same measure, in the same setting: the same measure for `CC(=O)OC(C)OC(=O)C(C)c1ccc(-c2ccccc2)c(F)c1` (stereo not drawn) [Flurbiprofen axetil]: above 50 µM; for `CC(=O)NCCO` [N-(2-Hydroxyethyl)acetamide]: above 90 µM; for `Oc1ccc(C(=C(Cl)Cl)c2ccc(O)cc2)cc1` [Bis(4-hydroxyphenyl)-2,2-dichloroethylene]: above 90 µM. For the compound `CC(C)(C)c1ccc(CCC=O)cc1` [3-(4-tert-Butylphenyl)propanal], the CC50 at 24 h (AC50 (uM) modified / 1000) is above 90 µM. Still for that read-out and setting: the same measure for `O=C(c1ccc(O)cc1)c1ccc(O)cc1O` [2,4,4'-Trihydroxybenzophenone]: above 90 µM; for `CCN(CC)CC1CCCCN1CC(=O)N1c2ccccc2C(=O)Nc2cccnc21` (stereo not drawn) [AF-DX 116]: above 50 µM. Turning to `CC(C)NC(=O)NC(C)C` [1,3-Dipropan-2-ylurea], the 50% cytotoxic concentration (CC50) at 24 h (AC50 (uM) modified / 1000) was above 90 µM. In turn, `Cc1ccc(N)cc1O` [5-Amino-2-methylphenol] came in with a CC50 at 24 h (AC50 (uM) modified / 1000) above 90 µM. `Nc1ccc2cc(S(=O)(=O)O)cc(O)c2c1` [6-Amino-4-hydroxynaphthalene-2-sulfonic acid] registered a cytotoxic concentration (CC50) at 24 h (AC50 (uM) modified / 1000) above 90 µM. Where the note is “AC50 (uM) modified / 1000”, `CCCCCCCCCCCC[N+](C)(C)CCCS(=O)(=O)O` displayed a CC50 at 24 h of 55.3 µM. On the same count and under the same terms, the same measure for `CCCCN(CCCC)CC(O)c1cc(Cl)cc2c1-c1ccc(Cl)cc1/C2=C/c1ccc(Cl)cc1` (stereo not drawn) [Lumefantrine]: 38.5 µM. Still for that read-out and setting: the same measure for `C[N+](C)(C)CC(O)CC(=O)[O-]` (stereo not drawn) [Carnitine hydrochloride]: above 50 µM; for `O=S(O)CO` [Hydroxymethanesulfinic acid monosodium salt dihydrate]: above 50 µM.

For `NC(=O)C(=O)N/N=C/c1ccc([N+](=O)[O-])o1` [Nifuraldezone], the CC50 at 24 h (AC50 (uM) modified / 1000) was found to be 24.8 µM. Same read-out and setting: the same measure for `C[C@]12CC[C@@H]3c4ccc(O)cc4CC[C@H]3[C@@H]1CC[C@@H]2O` [17beta-Estradiol]: above 90 µM; for `CC(=O)Nc1cccc(O)c1` [3-Acetamidophenol]: above 90 µM; for `CN(C)c1cc(NC(=O)CNC(C)(C)C)c(O)c2c1C[C@H]1C[C@H]3[C@H](N(C)C)C(O)=C(C(N)=O)C(=O)[C@@]3(O)C(O)=C1C2=O` [Tigecycline]: above 50 µM. The same measure, in the same setting: the same measure for `Clc1ccc(C(Cl)(Cl)Cl)cn1` [2-Chloro-5-trichloromethylpyridine]: above 90 µM; for `COc1ccc(-c2coc3cc(O)cc(O)c3c2=O)cc1` [Biochanin A]: above 90 µM. On the same count and under the same terms, the same measure for `NNC(N)=S` [Thiosemicarbazide]: above 100 µM. In turn, `ClCC(Cl)(Cl)Cl` [1,1,1,2-Tetrachloroethane] showed a CC50 at 24 h (AC50 (uM) modified / 1000, Tox21_110001=Tox21_201109, viability, 1 nM T3 present, 24 h) above 100 µM. The compound `COc1ccccc1OC(=O)Oc1ccccc1OC` [Guaiacol carbonate] registered a CC50 at 24 h (AC50 (uM) modified / 1000) above 50 µM. The same measure, in the same setting: the same measure for `C=C(C)C(=O)OCC(C)C` [Isobutyl methacrylate]: above 90 µM; for `O=C(CCCN1CCC(n2c(=S)[nH]c3ccccc32)CC1)c1ccc(F)cc1` [Timiperone]: 23.9 µM; for `Cc1cc(C)c(C(=O)P(=O)(C(=O)c2c(C)cc(C)cc2C)c2ccccc2)c(C)c1` [(Phenylphosphoryl)bis[(2,4,6-trimethylphenyl)methanone]]: above 90 µM. Same read-out and setting: the same measure for `Cc1cc(NS(=O)(=O)c2ccc(N)cc2)nc(C)n1` [Sulfisomidine]: above 50 µM; for `COc1ccc2c3c1O[C@H]1C(=O)CC[C@H]4[C@@H](C2)N(C)CC[C@]314` [Hydrocodone phosphate (2:3) monohydrate]: above 50 µM; for `N#CCC(=O)NN` [Cyacetacide]: above 50 µM. Consider `C1COC(NC(C2CC2)C2CC2)=N1` [Rilmenidine], for which, where the note is “AC50 (uM) modified / 1000”, the CC50 at 24 h is above 50 µM. Same read-out and setting: the same measure for `O=C(c1ccc(F)cc1)C1CCN(CCn2c(=O)[nH]c3ccccc3c2=O)CC1` [Ketanserin]: above 50 µM; for `NCCc1ccc(O)cc1` [Tyramine hydrochloride]: above 90 µM. `O=C(O)CCC(=O)c1ccc(-c2ccccc2)cc1` [Fenbufen] yielded a CC50 at 24 h (AC50 (uM) modified / 1000) above 20 µM.

Where the note is “AC50 (uM) modified / 1000”, `FC(F)(F)c1ccc(Cl)cc1` [1-Chloro-4-(trifluoromethyl)benzene] gave a CC50 at 24 h above 90 µM. On the same count and under the same terms, the same measure for `CCCc1ccc(N)cc1` [4-Propylaniline]: above 90 µM; for `CCN(Cc1cccnc1)C(=O)c1cccc(Cl)c1[C@]1(C)C(=O)N(Cc2ccc(OC)cc2OC)c2ccc(Cl)cc21` [SSR126768]: 9.39 µM. Still for that read-out and setting: the same measure for `C[C@H]1O[C@@H](O[C@H]2[C@@H](O)C[C@H](O[C@H]3[C@@H](O)C[C@H](O[C@H]4CC[C@@]5(C)[C@H](CC[C@@H]6[C@@H]5CC[C@]5(C)[C@@H](C7=CC(=O)OC7)CC[C@]65O)C4)O[C@@H]3C)O[C@@H]2C)C[C@H](O)[C@@H]1O` [Digitoxin]: above 60 µM; for `N=C(N)NN=C1C=CC(=NNC(N)=S)C=C1` [Ambazone]: 23 µM; for `CN1CCC[C@@H]1Cc1c[nH]c2ccc(CCS(=O)(=O)c3ccccc3)cc12` [Eletriptan]: 21.1 µM.

Where the note is “AC50 (uM) modified / 1000”, `CC(CN1c2ccccc2Sc2cccnc21)N(C)C` (stereo not drawn) [Isothipendyl hydrochloride] had a CC50 at 24 h of 28 µM. The compound `C=CC(C)=O` [Methyl vinyl ketone] returned a CC50 at 24 h (AC50 (uM) modified / 1000, Tox21_110001=Tox21_200363, viability, 1 nM T3 present, 24 h) above 90 µM. For the compound `CC(=O)OC1CN2CCC1CC2` (stereo not drawn) [Aceclidine], the cytotoxic concentration (CC50) at 24 h (AC50 (uM) modified / 1000) is above 50 µM. Compound `CC(C)OCC1CO1` (stereo not drawn) [Isopropyl glycidyl ether] gave a CC50 at 24 h (AC50 (uM) modified / 1000) above 90 µM. As to `NC(=O)c1ccccc1[N+](=O)[O-]` [2-Nitrobenzamide], for the setting “AC50 (uM) modified / 1000”, the CC50 at 24 h was above 90 µM. On the same count and under the same terms, the same measure for `CCC(=O)/C=C/C1C(C)=CCCC1(C)C` (stereo not drawn) [Methylionone]: above 90 µM; for `CN(C)CCC=C1c2ccccc2C(C)(C)c2ccccc21` [Melitracen hydrochloride]: 19.6 µM. The same measure, in the same setting: the same measure for `Cc1cc(NC(=O)C2=C(O)c3ccccc3S(=O)(=O)N2C)no1` [Isoxicam]: above 50 µM; for `CC(C)(C)c1ccc(CSc2cnn(C(C)(C)C)c(=O)c2Cl)cc1` [Pyridaben]: 47.4 µM; for `CC(C)(C)C(=O)Oc1ccc(S(=O)(=O)Nc2ccccc2C(=O)NCC(=O)O)cc1` [Sivelestat sodium tetrahydrate]: above 50 µM. On the same count and under the same terms, the same measure for `O=C(NC(=O)c1c(F)cccc1F)Nc1ccc(Oc2ccc(C(F)(F)F)cc2Cl)cc1F` [Flufenoxuron]: 34.6 µM.

`CCC(C)(C)C(=O)OC1=C(c2ccc(Cl)cc2Cl)C(=O)OC12CCCCC2` [Spirodiclofen]: the CC50 at 24 h (AC50 (uM) modified / 1000) was above 90 µM.

Turning to `FC1(F)C(F)(F)C(F)(F)C2(F)C(F)(C1(F)F)C(F)(F)C(F)(F)C1(F)C(F)(F)C(F)(F)C(F)(F)C(F)(F)C12F` (stereo not drawn) [Tetracosafluorotetradecahydrophenanthrene], the CC50 at 24 h (AC50 (uM) modified / 1000) is above 80 µM.

Turning to `CCON=O` [Ethyl nitrite], the CC50 at 24 h (AC50 (uM) modified / 1000, Tox21_110001=Tox21_112368, viability, 1 nM T3 present, 24 h) was above 50 µM. In the case of `CC[C@@H](CO)NC(=O)[C@@H]1C=C2c3cccc4c3c(cn4C)C[C@H]2N(C)C1` [Methysergide], the CC50 at 24 h (AC50 (uM) modified / 1000) was above 50 µM. As for `CN(C)CCCOc1nn(Cc2ccccc2)c2ccccc12` [Benzydamine hydrochloride], the CC50 at 24 h (AC50 (uM) modified / 1000) was found to be 6.35 µM. On the same count and under the same terms, the same measure for `COC(=O)C1CC(=O)C(C(=O)OC)CC1=O` (stereo not drawn) [Dimethyl succinylsuccinate]: above 5 µM. For `CCOC(=O)Cn1cccc1-c1nc(-c2ccc(OC)cc2)c(-c2ccc(OC)cc2)s1` [Pamicogrel], the CC50 at 24 h (AC50 (uM) modified / 1000) is above 50 µM. The same measure, in the same setting: the same measure for `N#Cc1ccccc1C#N` [1,2-Benzenedicarbonitrile]: above 70 µM; for `CCCCCCCCCCCCCCCC/C=C/C1CC(=O)OC1=O` (stereo not drawn) [Dihydro-3-(octadecenyl)-2,5-furandione]: 36 µM; for `CC/C=C\CC/C=C/C(OCC)OCC` [(2E,6Z)-1,1-diethoxynona-2,6-diene]: above 90 µM. On the same count and under the same terms, the same measure for `COc1ccc(/C=C/C(=O)c2ccc(OC)cc2OC)cc1` [Metochalcone]: 46.1 µM. The same measure, in the same setting: the same measure for `CCC(C)O` (stereo not drawn) [2-Butanol]: above 90 µM; for `CC(C)(CO)[C@@H](O)C(=O)NCCCC(=O)O` [Calcium hopantenate]: above 50 µM; for `Cc1cccc(OCCOc2cccc(C)c2)c1` [1,1'-[Ethane-1,2-diylbis(oxy)]bis(3-methylbenzene)]: above 100 µM.

Compound `O=Cc1ccccc1[N+](=O)[O-]` [2-Nitrobenzaldehyde] displayed a CC50 at 24 h (AC50 (uM) modified / 1000) above 90 µM. Same read-out and setting: the same measure for `C=CCOC(=O)CCCCCC` [Prop-2-en-1-yl heptanoate]: above 90 µM; for `CC1CNc2c(cccc2S(=O)(=O)N[C@@H](CCCNC(=N)N)C(=O)N2CC[C@@H](C)C[C@@H]2C(=O)O)C1` (stereo partly drawn) [Argatroban]: above 50 µM.

What is called CC50 is the concentration giving 50% cytotoxicity.
